Results on three compounds are retold here after patent publication US9539261B2, “Methods and compositions for stimulating neurogenesis and inhibiting neuronal degeneration” (Neuronascent, Inc., priority 2005, dated 2017).

Assay [1] deals with mature neurons. Nature of the assay: inhibition of beta amyloid peptide toxicity in mature neurons. It counts as cell-based, human. The method, then:
In measuring the ability of inhibiting apoptosis, mature neurons (3-4 weeks following initiation of differentiation) were treated with staurosporine to induce apoptosis. A low concentration of staurosporine (10-100 nM) or beta amyloid 1-42 peptide at 1-10 μM or peptide beta amyloid 25-35 at 10-75 μM concentration was used to stimulate apoptosis. At the same time as treating with staurosporine, the neurons were treated with vehicle or one of the test agents. […] Each compound's inhibitory ability was compared with vehicle and staurosporine.
Necrosis of the mature neurons was initiated using beta amyloid 1-42 peptide at 1-10 μM or peptide beta amyloid 25-35 at 10-75 μM concentration. This synthetic peptide was of the same length naturally found in AD brain. Because lactate dehydrogenase (LDH) is released from cells when the plasma membrane is impaired, the cell loss was quantified by the amount of LDH released into the media following a 24-48 hr treatment. The ability of neurogenic agents to reduce the LDH release induced by beta amyloid, versus vehicle control was used as the measurement of inhibition of neuron degeneration.

Assay [2] relates to human neuronal progenitors cells. Nature of the assay: in vitro neurogenesis test (MAP-2 staining, neuron number). The class given is cell-based. As to conditions: MAP-2 staining on day 11; human neuronal progenitors in differentiation media. As to the method: The in vitro neurogenesis test was performed using human neuronal progenitors cells. By way of background, the human neuronal progenitor cells can be cultured in media and have the potential to produce mature functional neurons. The neurogenesis factor in the culture media can promote the number of the progenitor cells which differentiate into neurons. Indeed, it is a widely accepted in vitro model to test a chemical's neurogenetic property.
Cells were obtained as human neuronal progenitors from a commercial source and were grown for up to three passages or at any time differentiated to potentially produce mature functional neurons in culture. Following two passages to expand the cells, progenitors were seeded into multi-well microplates and the media were changed to differentiation media (minus serum and mitogen). Within 2 hrs of this media change, a vehicle, positive control or test compound were added to each well. Also, they were added with every further media change (50% volume change every other day). Control wells contained cells and vehicle (0.2% DMSO in DMEM/F12). […]
The cells were stained using MAP-2, a neuronal marker, on day 11. Then, each test compound was assessed for the ability to promote an increase in neuron number and compared with the positive control, leukemia inhibitory factor (LIF).

Assay [3] concerns mature neurons. Nature of the assay: LDH assay of neuron degeneration due to hydrogen peroxide toxicity. The class given is cell-based, human. Conditions: hydrogen peroxide for 8 hrs, vehicle control = 0% inhibition, n = 5 wells.

Regarding “4-Benzo-8-aza-bicyclo[3.2.1]oct-3-yl)-3-(2-chloro-phenyl)-thiourea”, in assay [1], the “% Inhibition of beta amyloid peptide toxicity” value amounted to 68%. In the case of `COCCN(Cc1cc2ccc(C)c(C)c2nc1Cl)C(=O)Nc1ccccc1OC` [1-(2-Chloro-7,8-dimethyl-quinolin-3-ylmethyl)-1-(2-methoxy-ethyl)-3-(2-methoxy-phenyl)-urea], in assay [2], the “increase in the neuron numbers compared with the vehicle control, % of Control” value is 132 % of Control.

`COc1ccccc1NC(=S)N1CCCN(c2nc3cc(C)cc(C)c3cc2C#N)CC1` [4-(3-Cyano-5,7-dimethyl-quinolin-2-yl)-[1,4]diazepane-1-carbothioic acid (2-methoxy-phenyl)-amide]: the “% Inhibition of beta amyloid peptide toxicity” value in assay [1] is reported as 84%. Further, in assay [3], the “% Inhibition of neuron degeneration due to hydrogen peroxide toxicity” value is 50%. Further, in assay [2], the “increase in the neuron numbers compared with the vehicle control, % of Control” value is 110 % of Control.
